# US10428115B2, “Dynorphin A analogs with bradykinin receptors specificity for modulation of neuropathic pain” (THE ARIZONA BOARD OF REGENTS ON BEHALF OF THE UNIVERSITY OF …, priority 2013, dated 2019)
# Read-outs that look alike come from different tables or passages of the source. Square brackets hold non-standard residues; d marks the D form. Ends that are not written are not given here. Nle = CCCC[C@H](N)C(=O)O
# Tests used:
# [1] = Stability in plasma (t1/2)
# [2] = tested on: bradykinin-induced plasma extravasation; assay: Bradykinin-induced rat paw oedema and plasma extravasation, intraplantar injection; assay type: in vivo
# Experimental: Experiments were conducted on non-fasted male Sprague-Dawley rats (250-300 g) kept in a room controlled for temperature (22±2° C.) and illumination (12 h on and 12 h off). Under ketamine/xylazine (80/12 mg/kg, i.p.) anesthesia animals received an injection of Evans Blue (30 mg/mL/kg, i.v.) via tail vein and baseline paw volume for both hindpaws was measured by use of a plethysmometer (Ugo Basile). Animals then received 0.1 mL i.pl. injections in one hindpaw of normal saline (0.9% NaCl) containing BK either alone or mixed with HOE140 or LYS1044 (10 nmol/paw each). The contralateral paw received 0.1 mL saline and was used as a control. Oedema was measured at several 30, 60 and 90 min post i.pl. injections and expressed in mL as the difference (mL) between the test and control paws. Three hours post BK injections, animals were sacrificed and patches (10×5 mm) of the dorsal skin from both hindpaws were collected. The skin patches were then incubated separately in Eppendorf tubes containing 1.8 mL formamide at 60° C. water bath for 24 h to extract the dye. The tissue extraction was then centrifuged at 15000 rpm for 15 min and the supernatant was pipetted to a 96 well plate as triplicates and the absorbance was determined at 620 nm. The difference of the mean absorbance between the two hindpaws of each rat was used to compare the degree of plasma extravasation in different treatment groups.
# naive rats = assay: Motor function and paralysis after intrathecal injection (hindlimb tests, tail-flick) in naive rats; assay type: in vivo, rat; settings: for motor function after intrathecal (spinal) injection: naive rats
# Experimental: Intrathecal (i.th.) catheterization. While under ketamine/xylazine (80/12 mg/kg, i.p.) anesthesia, some groups of rats were implanted with i.th. catheters (polyethylene 10, 7.8 cm) through atlanto-occipital membrane extended to the level of the lumbar spinal cord for drug administration. Animals were allowed to recover for 7 days. Drugs were injected in a volume of 5 μl, followed by a 1 μl air bubble and a 9 μl saline flush.
# Tail-flick test. The hot-water tail-flick test was performed by placing the distal third of the tail in a water bath maintained at 52° C. The latency until tail withdrawal from the bath was determined and compared among the treatments. A 10 sec cutoff was used to avoid tissue damage. Data were converted to percentage of antinociception by the following formula: (response latency−baseline latency)/(cutoff−baseline latency)*100.
# SNL rats = assay: Reversal of thermal hyperalgesia and tactile hypersensitivity in SNL rats (neuropathic pain model); assay type: in vivo, rat
# [3] = target: rat brain bradykinin receptors; assay: Radioligand competition binding against [3H]DALKD in rat brain membranes; settings: for IC50: [3H]DALKD
# Experimental: Binding affinities of dynorphin A analogs at the bradykinin receptors were determined by radioligand competition analysis using [^3H]DALKD or [^3H]BK in rat brain membranes or transfected HEK 293 cells expressing the human B2R. Crude rat brain membranes were pelleted and resuspended in 50 mM Tris buffer containing 50 μg/mL bacitracin, 10 μM captopril, 100 μM PMSF, and 5 mg/mL BSA. 10 concentrations of a test compound were each incubated with 50 μg of membranes and [^3H]DALKD (1 nM, 76.0 Ci/mmol) or [^3H]BK (1 nM, 85.4 Ci/mmol) at 25° C. for 2 h. Non-specific binding was defined by that in the presence of […] KD in all assays. Reactions were terminated by rapid filtration through Whatman GF/B filters presoaked in 1% polyethyleneimine, followed with four washes of 2 mL cold saline. Radioactivity was determined by liquid scintillation counting in a Beckman LS5000 TD. Data were analyzed by non-linear least squares analysis using GraphPad Prism (Version 4). […]
# guinea pig ileum = settings: compared with the enkephalins and β-endorphin; cited from earlier work
# [4] = Table 2, rat brain bradykinin receptors, pH 7.4, read-out: IC50 (nM) at pH 7.4, n > 2
# [5] = Table 4, rat brain bradykinin receptors, pH 7.4, read-out: IC50 (nM) at pH 7.4, N > 2
# [6] = Table 6, rat brain bradykinin receptors, pH 7.4, read-out: IC50 (nM) at pH 7.4, N > 2
# [7] = Table 5, rat brain bradykinin receptors, pH 7.4, read-out: IC50 (nM) at pH 7.4, N > 2
# [8] = Table 3, rat brain bradykinin receptors, pH 7.4, read-out: IC50 (nM) at pH 7.4, N > 2
# [9] = Table 1, brain bradykinin receptors, pH 6.8, read-out: IC50 (nM) at pH 6.8, n ≥ 2
# [10] = Table 1, brain bradykinin receptors, pH 7.4, read-out: IC50 (nM) at pH 7.4, n ≥ 2
# [11] = Table 6, rat brain bradykinin receptors, pH 6.8, read-out: IC50 (nM), cell marked at pH 6.8
# [12] = Table 5, rat brain bradykinin receptors, pH 6.8, read-out: IC50 (nM), cell marked at pH 6.8
molecule,measurement,setting,value
"CC[C@H](C)[C@H](NC(=O)[C@H](CCCNC(=N)N)NC(=O)[C@H](CC(C)C)NC(=O)[C@@H](N)Cc1ccccc1)C(=O)N[C@@H](CCCNC(=N)N)C(=O)N1CCC[C@H]1C(=O)N[C@@H](CCCCN)C(=O)O [LYS1044, Phe-Leu-Arg-Ile-Arg-Pro-Lys]",toxic effect on rotarod experiment,Rotarod experiment,no toxic effect
same,half-life,[1],< 3 h
same,changes in paw volume,[2],does not show changes in paw volume
same,prevention of bradykinin-induced plasma extravasation,[2],does not prevent bradykinin-induced plasma extravasation
same,motor function after intrathecal (spinal) injection,naive rats,does not produce motor impairment
same,prevention of dynorphin A-(2-13)-induced paralysis,naive rats; spinal administration,prevents dynorphin A-(2-13)-induced paralysis
same,anti-allodynic effect,SNL rats; tactile hypersensitivity,anti-allodynic effects
same,anti-hyperalgesic effect,SNL rats; thermal hyperalgesia,dose dependent anti-hyperalgesic
"GFLRRIRPK [LYS1027, Gly-Phe-Leu-Arg-Arg-Ile-Arg-Pro-Lys]",IC50,[3]; [4],130 nM
FLRIRPR [AN104],IC50,[3]; [5],210 nM
same,IC50,[3]; [6],210 nM
"GFLRRIRPKL [LYS1024, Gly-Phe-Leu-Arg-Arg-Ile-Arg-Pro-Lys-Leu]",IC50,[3]; [4],280 nM
FLRLRPR [AN106],IC50,[3]; [6],100 nM
AN101: modified dynorphin A analog; Table 6 prints only the change: Nle at position 8 (FLR[Nle]RPK),IC50,[3]; [6],140 nM
"GFLRRIRPKLK [LYS1021, Gly-Phe-Leu-Arg-Arg-Ile-Arg-Pro-Lys-Leu-Lys]",IC50,[3]; [4],320 nM
"LRIRPK [LYS1043, Leu-Arg-Ile-Arg-Pro-Lys]",IC50,[3]; [7],180 nM
Tyr-Gly-Gly-Phe-Leu-Arg-Arg-Ile-Arg-Pro-Lys-Leu-Lys (YGGFLRRIRPKLK; listed as Homo sapiens) [dynorphin A-(1-13)],activity in guinea pig ileum test,guinea pig ileum,substantially more active than the enkephalins and β-endorphin
"LRRIRPKL [LYS1022, Leu-Arg-Arg-Ile-Arg-Pro-Lys-Leu]",IC50,[3]; [8],7100 nM
"PKLK [LYS1038, Pro-Lys-Leu-Lys]",IC50,[3]; [9],210 nM
same,IC50,[3]; [10],120 nM
"RIRPKLK [LYS1114, Arg-Ile-Arg-Pro-Lys-Leu-Lys]",IC50,[3]; [9],72 nM
"RPKLK [LYS1113, Arg-Pro-Lys-Leu-Lys]",IC50,[3]; [9],58 nM
"GFLRRIRP [BP1004D, Gly-Phe-Leu-Arg-Arg-Ile-Arg-Pro]",IC50,[3]; [4],1200 nM
"AN108-4: dynorphin A analog; Table 4 prints only changes: Ac-DPhe at 4, Nle at 5, Nle at 8, Arg at 11 (Ac-[dF][Nle]R[Nle]RPR)",IC50,[3]; [5],54 nM
"AN108-1: dynorphin A analog; Table 4 prints only changes: Ac- at 4, Nle at 5, Nle at 8, Arg at 11 (Ac-F[Nle]R[Nle]RPR)",IC50,[3]; [5],140 nM
"FLRRIRPK [Analogs S1F, Phe-Leu-Arg-Arg-Ile-Arg-Pro-Lys-NH2]",IC50,[3]; [8],6800 nM
"LYS1107: modified dynorphin A analog; Table 6 prints only the change: Nle at position 12 (PK[Nle]K; ends and bridges not checked; also: modified dynorphin A analog, full sequence beyond listed fragment not given here)",IC50,[3]; [6],72 nM
"GFLRIR [Analogs J101, Gly-Phe-Leu-Arg-Ile-Arg]",IC50,[3]; [7],620 nM
"AN109: dynorphin A analog; Table 4 prints only changes: Ac- in Gly^3 column, Nle at 5, Nle at 8, Arg at 11 (Ac-GF[Nle]R[Nle]RPR)",IC50,[3]; [5],210 nM
"GFLRRIR [Analogs J104, Gly-Phe-Leu-Arg-Arg-Ile-Arg]",IC50,[3]; [4],780 nM
"GFLRIRPK [LYS1045, Gly-Phe-Leu-Arg-Ile-Arg-Pro-Lys]",IC50,[3]; [7],130 nM
"GFLRIRPKLK [LYS1042, Gly-Phe-Leu-Arg-Ile-Arg-Pro-Lys-Leu-Lys]",IC50,[3]; [9],26 nM
same,IC50,[3]; [10],41 nM
same,IC50,[3]; [7],43 nM
"LRIRPKLK [LYS1040, Leu-Arg-Ile-Arg-Pro-Lys-Leu-Lys]",IC50,[3]; [9],30 nM
same,IC50,[3]; [10],68 nM
same,IC50,[3]; [7],68 nM
"IRPKLK [LYS1039, Ile-Arg-Pro-Lys-Leu-Lys]",IC50,[3]; [9],63 nM
same,IC50,[3]; [10],81 nM
"FLRRIRPK [LYS1026, Phe-Leu-Arg-Arg-Ile-Arg-Pro-Lys]",IC50,[3]; [9],69 nM
same,IC50,[3]; [10],140 nM
same,IC50,[3]; [8],140 nM
FIRIRPR [AN105],IC50,[3]; [6],110 nM
CC[C@H](C)[C@H](NC(=O)[C@H](CCCNC(=N)N)NC(=O)[C@@H](CC(C)C)NC(=O)[C@@H](N)Cc1ccccc1)C(=O)N[C@@H](CCCNC(=N)N)C(=O)N1CCC[C@H]1C(=O)N[C@@H](CCCCN)C(=O)O [SH145],half-life,[1],> 24 h
same,IC50,[3]; [11],99 nM
same,binding affinity at bradykinin receptors (in words),[3]; rat brain bradykinin receptors,retained the same high binding affinity as LYS1044
"FLRIRPK [AP107-1, Ac-Phe-Leu-Arg-Ile-Arg-Pro-Lys]",IC50,[3]; [8],120 nM
same,IC50,[3]; [5],120 nM
"CC[C@H](C)[C@H](NC(=O)[C@H](CCCNC(=N)N)NC(=O)[C@H](CCCNC(=N)N)NC(=O)[C@H](CC(C)C)NC(=O)[C@H](Cc1ccccc1)NC(=O)CNC(=O)CN)C(=O)N[C@@H](CCCNC(=N)N)C(=O)N1CCC[C@H]1C(=O)N[C@@H](CCCCN)C(=O)N[C@@H](CC(C)C)C(=O)N[C@@H](CCCCN)C(=O)O [Dyn (2-13), Gly-Gly-Phe-Leu-Arg-Arg-Ile-Arg-Pro-Lys-Leu-Lys, reference compound]",IC50,[3]; [9],21 nM
same,IC50,[3]; [10],170 nM
same,motor function after intrathecal (spinal) injection,naive rats,produces disturbances of motor function and antinociception
WLRIRPK [AN103],IC50,[3]; [6],190 nM
"GFLR [LYS1035, Gly-Phe-Leu-Arg]",IC50,[3]; [4],950 nM
same,IC50,[3]; [8],950 nM
"FLRRIRRPK [SH114, Phe-Leu-Arg-Arg-Ile-Arg-Arg-Pro-Lys]",IC50,[3]; [12],74 nM
"GFLR [LYS1031, Gly-Phe-Leu-Arg-NH2]",IC50,[3]; [8],> 10000 nM
"IRPKL [RK107, Ile-Arg-Pro-Lys-Leu-NH2]",IC50,[3]; [8],8700 nM
"GFLRR [BP006D, Gly-Phe-Leu-Arg-Arg]",IC50,[3]; [4],8100 nM
"GFLRRI [LYS1004, Gly-Phe-Leu-Arg-Arg-Ile]",IC50,[3]; [4],2300 nM
"RIRPKL [RK108, Arg-Ile-Arg-Pro-Lys-Leu-NH2]",IC50,[3]; [8],6300 nM
Ac-Phe-Leu-Arg-Ile-Arg-Pro-DLys (Ac-FLRIRP[dK]) [AP111],IC50,[3]; [8],550 nM
"SH124: modified dynorphin A analog; Table 6 prints only changes: Nle at 8, Lys at 9, Nle at 12 ([Nle]KPK[Nle]K; ends and bridges not checked; also: modified dynorphin A analog, full sequence beyond listed fragment not given here)",IC50,[3]; [11],78 nM
"GGFLRIRPKLK [CYF103, Gly-Gly-Phe-Leu-Arg-Ile-Arg-Pro-Lys-Leu-Lys]",IC50,[3]; [9],41 nM
same,IC50,[3]; [12],41 nM
